Species on record: Rattus norvegicus
Experiment: DrugMatrix - Regimen: Daily Repeat
Assay type: toxicity, organism-based, Sprague-Dawley
Set-up: regimen Daily Repeat, gender Male, age 6-8 weeks
Settings: in vivo, po, route oral GAVAGE, vehicle 100 % WATER; for ABSOLUTE BASOPHIL / ABSOLUTE EOSINOPHIL / ABSOLUTE LYMPHOCYTE / ABSOLUTE MONOCYTE / ABSOLUTE SEGMENTED NEUTROPHIL / BASOPHIL / EOSINOPHIL / ERYTHROCYTE COUNT / HEMATOCRIT / HEMOGLOBIN / LEUKOCYTE COUNT / LYMPHOCYTE / MEAN CORPUSCULAR HEMOGLOBIN / MEAN CORPUSCULAR HEMOGLOBIN CONCENTRATION / MEAN CORPUSCULAR VOLUME / MONOCYTE / NEUTROPHIL / NUCLEATED RED BLOOD CELLS / PLATELET COUNT: tissue Blood; for ALANINE AMINOTRANSFERASE / ALBUMIN / ALKALINE PHOSPHATASE / ASPARTATE AMINOTRANSFERASE / BLOOD UREA NITROGEN / CARBON DIOXIDE / CHLORIDE / CHOLESTEROL / CREATINE PHOSPHOKINASE / CREATININE / GLUCOSE / LACTATE DEHYDROGENASE / LIPASE / PHOSPHORUS / POTASSIUM / SODIUM / TOTAL BILIRUBIN / TOTAL PROTEIN / URIC ACID: tissue Plasma
[1] = 900 mg/kg, 120 h, dose level Low, time 5 day
[2] = 5000 mg/kg, 72 h, dose level High, time 3 day
[3] = 5000 mg/kg, 120 h, dose level High, time 5 day

Clc1ccc(C(c2ccccc2Cl)C(Cl)Cl)cc1 (centres undefined) [MITOTANE]
ABSOLUTE BASOPHIL [1]: 0 CELLS/uL | ABSOLUTE EOSINOPHIL [1]: 0 CELLS/uL | ABSOLUTE LYMPHOCYTE [1]: 11920 CELLS/uL | ABSOLUTE MONOCYTE [1]: 138 CELLS/uL | ABSOLUTE SEGMENTED NEUTROPHIL [1]: 942 CELLS/uL | BASOPHIL [1]: 0% | EOSINOPHIL [1]: 0% | ERYTHROCYTE COUNT [1]: 5.65 x10E6/uL | HEMATOCRIT [1]: 36% | HEMOGLOBIN [1]: 14.27 G/DL | LEUKOCYTE COUNT [1]: 13 x10E3/uL | LYMPHOCYTE [1]: 91.67% | MEAN CORPUSCULAR HEMOGLOBIN [1]: 25.3 pg | MEAN CORPUSCULAR HEMOGLOBIN CONCENTRATION [1]: 39.6 G/DL | MEAN CORPUSCULAR VOLUME [1]: 63.73 fL | MONOCYTE [1]: 1% | NEUTROPHIL [1]: 7.33% | NUCLEATED RED BLOOD CELLS [1]: 0 /100WBC | PLATELET COUNT [1]: 1407.33 x10E3/uL | ALANINE AMINOTRANSFERASE [1]: 52 u/L | ALBUMIN [1]: 4.07 G/DL | ALKALINE PHOSPHATASE [1]: 421.33 u/L | ASPARTATE AMINOTRANSFERASE [1]: 89.67 u/L | BLOOD UREA NITROGEN [1]: 13.67 mg/dL | CARBON DIOXIDE [1]: 30.67 mmol/L | CHLORIDE [1]: 100 MEQ/L | CHOLESTEROL [1]: 71 mg/dL | CREATINE PHOSPHOKINASE [1]: 382 u/L | CREATININE [1]: 0.2 mg/dL | GLUCOSE [1]: 148.67 mg/dL | LACTATE DEHYDROGENASE [1]: 632.67 u/L | LIPASE [1]: 11 u/L | PHOSPHORUS [1]: 12.57 mg/dL | POTASSIUM [1]: 6.42 MEQ/L | SODIUM [1]: 142.8 MEQ/L | TOTAL BILIRUBIN [1]: 0.13 mg/dL | TOTAL PROTEIN [1]: 6.03 G/DL | URIC ACID [1]: 2.17 mg/dL | ABSOLUTE BASOPHIL [2]: 0 CELLS/uL | ABSOLUTE EOSINOPHIL [2]: 124.33 CELLS/uL | ABSOLUTE LYMPHOCYTE [2]: 15356 CELLS/uL | ABSOLUTE MONOCYTE [2]: 296.33 CELLS/uL | ABSOLUTE SEGMENTED NEUTROPHIL [2]: 556.67 CELLS/uL | BASOPHIL [2]: 0% | EOSINOPHIL [2]: 0.67% | ERYTHROCYTE COUNT [2]: 5.76 x10E6/uL | HEMATOCRIT [2]: 36.73% | HEMOGLOBIN [2]: 14.3 G/DL | LEUKOCYTE COUNT [2]: 16.33 x10E3/uL | LYMPHOCYTE [2]: 94.67% | MEAN CORPUSCULAR HEMOGLOBIN [2]: 24.83 pg | MEAN CORPUSCULAR HEMOGLOBIN CONCENTRATION [2]: 38.93 G/DL | MEAN CORPUSCULAR VOLUME [2]: 63.8 fL | MONOCYTE [2]: 1.67% | NEUTROPHIL [2]: 3% | NUCLEATED RED BLOOD CELLS [2]: 0 /100WBC | PLATELET COUNT [2]: 1407.33 x10E3/uL | ALANINE AMINOTRANSFERASE [2]: 75.67 u/L | ALBUMIN [2]: 3.93 G/DL | ALKALINE PHOSPHATASE [2]: 512.67 u/L | ASPARTATE AMINOTRANSFERASE [2]: 87 u/L | BLOOD UREA NITROGEN [2]: 12.33 mg/dL | CARBON DIOXIDE [2]: 32.67 mmol/L | CHLORIDE [2]: 101 MEQ/L | CHOLESTEROL [2]: 72.33 mg/dL | CREATINE PHOSPHOKINASE [2]: 440.67 u/L | CREATININE [2]: 0.19 mg/dL | GLUCOSE [2]: 123.33 mg/dL | LACTATE DEHYDROGENASE [2]: 189.33 u/L | LIPASE [2]: 10.33 u/L | PHOSPHORUS [2]: 11.37 mg/dL | POTASSIUM [2]: 6.63 MEQ/L | SODIUM [2]: 144.03 MEQ/L | TOTAL BILIRUBIN [2]: 0.1 mg/dL | TOTAL PROTEIN [2]: 6.13 G/DL | URIC ACID [2]: 1.53 mg/dL | ABSOLUTE BASOPHIL [3]: 0 CELLS/uL | ABSOLUTE EOSINOPHIL [3]: 32.67 CELLS/uL | ABSOLUTE LYMPHOCYTE [3]: 11464 CELLS/uL | ABSOLUTE MONOCYTE [3]: 86.67 CELLS/uL | ABSOLUTE SEGMENTED NEUTROPHIL [3]: 983.33 CELLS/uL | BASOPHIL [3]: 0% | EOSINOPHIL [3]: 0.33% | ERYTHROCYTE COUNT [3]: 5.42 x10E6/uL | HEMATOCRIT [3]: 34.3% | HEMOGLOBIN [3]: 13.47 G/DL | LEUKOCYTE COUNT [3]: 12.57 x10E3/uL | LYMPHOCYTE [3]: 91.33% | MEAN CORPUSCULAR HEMOGLOBIN [3]: 24.83 pg | MEAN CORPUSCULAR HEMOGLOBIN CONCENTRATION [3]: 39.3 G/DL | MEAN CORPUSCULAR VOLUME [3]: 63.2 fL | MONOCYTE [3]: 0.67% | NEUTROPHIL [3]: 7.67% | NUCLEATED RED BLOOD CELLS [3]: 0 /100WBC | PLATELET COUNT [3]: 1284 x10E3/uL | ALANINE AMINOTRANSFERASE [3]: 63.67 u/L | ALBUMIN [3]: 4.07 G/DL | ALKALINE PHOSPHATASE [3]: 426.67 u/L | ASPARTATE AMINOTRANSFERASE [3]: 73 u/L | BLOOD UREA NITROGEN [3]: 15 mg/dL | CARBON DIOXIDE [3]: 34.67 mmol/L | CHLORIDE [3]: 97.33 MEQ/L | CHOLESTEROL [3]: 99.67 mg/dL | CREATINE PHOSPHOKINASE [3]: 400.67 u/L | CREATININE [3]: 0.19 mg/dL | GLUCOSE [3]: 133.33 mg/dL | LACTATE DEHYDROGENASE [3]: 123.33 u/L | LIPASE [3]: 11.33 u/L | PHOSPHORUS [3]: 11.97 mg/dL | POTASSIUM [3]: 6.85 MEQ/L | SODIUM [3]: 141.7 MEQ/L | TOTAL BILIRUBIN [3]: 0.2 mg/dL | TOTAL PROTEIN [3]: 6.37 G/DL | URIC ACID [3]: 1.57 mg/dL
